Laboratory results taken from ChEMBL document CHEMBL1201862, “PubChem BioAssay data set” (2004).
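A five-concentration, 48-hour dose response in 96-well plates underlies each endpoint, interpolated linearly between surrounding concentrations. GI50 = concentration required for 50% inhibition of growth.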 Calls of active or inactive are those of the source. Rule as the data show it: active = GI50 up to about 1.1 µM and inactive = higher.

Assays:
Test in all cases: growth of human tumour cells (NCI), 48 h
CCRF-CEM = system: CCRF-CEM
Hs-578T = system: Hs-578T
HT-29 = system: HT-29
SF-295 = system: SF-295
KM12 = system: KM12
UO-31 = system: UO-31
MDA-MB-435 = system: MDA-MB-435
SNB-75 = system: SNB-75
HCT-15 = system: HCT-15
NCI-H23 = system: NCI-H23
OVCAR-5 = system: OVCAR-5
UACC-257 = system: UACC-257
ACHN = system: ACHN
OVCAR-3 = system: OVCAR-3
T47D = system: T47D
UACC-62 = system: UACC-62
SK-MEL-5 = system: SK-MEL-5
U-251 = system: U-251
SR = system: SR
NCI-H460 = system: NCI-H460
TK-10 = system: TK-10
HCC 2998 = system: HCC 2998
HCT-116 = system: HCT-116
M14 = system: M14
RXF 393 = system: RXF 393
SF-539 = system: SF-539
SK-MEL-28 = system: SK-MEL-28
CAKI-1 = system: CAKI-1
SN12C = system: SN12C
K562 = system: K562
MCF7 = system: MCF7
MDA-MB-231 = system: MDA-MB-231
LOX IMVI = system: LOX IMVI
HOP-92 = system: HOP-92
NCI/ADR-RES = system: NCI/ADR-RES
SNB-19 = system: SNB-19
BT-549 = system: BT-549
MDA-N = system: MDA-N
SK-OV-3 = system: SK-OV-3
RPMI-8226 = system: RPMI-8226
OVCAR-8 = system: OVCAR-8
HOP-62 = system: HOP-62
NCI-H522 = system: NCI-H522
PC-3 = system: PC-3
DU-145 = system: DU-145
COLO 205 = system: COLO 205
SF-268 = system: SF-268
786-0 = system: 786-0
HL-60 = system: HL-60
EKVX = system: EKVX
A549 = system: A549
SW-620 = system: SW-620
OVCAR-4 = system: OVCAR-4
A498 = system: A498
Malme-3M = system: Malme-3M
NCI-H226 = system: NCI-H226
MOLT-4 = system: MOLT-4
SK-MEL-2 = system: SK-MEL-2
IGROV-1 = system: IGROV-1

**Q.** Which results are given for OC(Cc1cccc2ccccc12)CN1CCC(c2ccccc2)CC1 (centres undefined)?
**A.** GI50 (CCRF-CEM): 18.5 µM (inactive); GI50 (Hs-578T): 15.8 µM (inactive); GI50 (HT-29): 11.2 µM (inactive); GI50 (SF-295): 13.2 µM (inactive); GI50 (KM12): 14.8 µM (inactive); GI50 (UO-31): 0.0241 µM (active); GI50 (MDA-MB-435): 15.1 µM (inactive); GI50 (SNB-75): 12.3 µM (inactive); GI50 (HCT-15): 14.5 µM; GI50 (NCI-H23): 15.3 µM (inactive); GI50 (OVCAR-5): 13.7 µM (inactive); GI50 (UACC-257): 3.72 µM (inactive); GI50 (ACHN): 17.1 µM (inactive); GI50 (OVCAR-3): 15.1 µM (inactive); GI50 (T47D): 14.3 µM (inactive); GI50 (UACC-62): 15.3 µM (inactive); GI50 (SK-MEL-5): 12.1 µM (inactive); GI50 (U-251): 13.4 µM (inactive); GI50 (SR): 10.8 µM (inactive); GI50 (NCI-H460): 13.9 µM (inactive); GI50 (TK-10): 12.8 µM (inactive); GI50 (HCC 2998): 2.56 µM (inactive); GI50 (HCT-116): 13.2 µM (inactive); GI50 (M14): 13.8 µM (inactive); GI50 (RXF 393): 10.2 µM (inactive); GI50 (SF-539): 17.3 µM (inactive); GI50 (SK-MEL-28): 13.4 µM (inactive); GI50 (CAKI-1): 11.1 µM (inactive); GI50 (SN12C): 16.5 µM (inactive); GI50 (K562): 12.5 µM (inactive); GI50 (MCF7): 17.3 µM (inactive); GI50 (MDA-MB-231): 14.2 µM (inactive); GI50 (LOX IMVI): 15.5 µM (inactive); GI50 (HOP-92): 12.4 µM (inactive); GI50 (NCI/ADR-RES): 14.9 µM (inactive); GI50 (SNB-19): 13 µM (inactive); GI50 (BT-549): 16.8 µM (inactive); GI50 (MDA-N): 14.3 µM (inactive); GI50 (SK-OV-3): 17.5 µM (inactive); GI50 (RPMI-8226): 8.13 µM (inactive); GI50 (OVCAR-8): 16.8 µM (inactive); GI50 (HOP-62): 15.8 µM (inactive); GI50 (NCI-H522): 9.48 µM (inactive); GI50 (PC-3): 14.5 µM (inactive); GI50 (DU-145): 14.9 µM (inactive); GI50 (COLO 205): 13 µM (inactive); GI50 (SF-268): 14.4 µM (inactive); GI50 (786-0): 15 µM (inactive); GI50 (HL-60): 16.7 µM (inactive); GI50 (EKVX): 14 µM (inactive); GI50 (A549): 15.9 µM (inactive); GI50 (SW-620): 15 µM (inactive)

**Q.** How did the GI50 (CCRF-CEM) turn out when N#CC(C#N)/N=N/c1ccc(-c2nc3ccccc3[nH]2)cc1 was run?
**A.** Its GI50 is 9.84 µM (inactive).

**Q.** And the GI50 (Hs-578T)?
**A.** The GI50 was 52 µM (inactive).

**Q.** What about the GI50 (HT-29) of the same compound?
**A.** Its GI50 is 28.7 µM (inactive).

**Q.** And the GI50 (SF-295)?
**A.** Its GI50 is > 100 µM (inactive).

**Q.** And the GI50 (KM12)?
**A.** Its GI50 is 59.2 µM (inactive).

**Q.** And the GI50 (UO-31)?
**A.** Its GI50 is 14 µM (inactive).

**Q.** And the GI50 (MDA-MB-435)?
**A.** The GI50 was 18 µM (inactive).

**Q.** What about the GI50 (SNB-75) of the same compound?
**A.** The GI50 was 42 µM (inactive).

**Q.** What about the GI50 (HCT-15) of the same compound?
**A.** The GI50 was 21.7 µM.

**Q.** And the GI50 (OVCAR-4)?
**A.** The GI50 was 22 µM (inactive).

**Q.** And the GI50 (NCI-H23)?
**A.** The GI50 was 20 µM (inactive).

**Q.** And the GI50 (OVCAR-5)?
**A.** Its GI50 is > 100 µM (inactive).

**Q.** What about the GI50 (A498) of the same compound?
**A.** The GI50 was > 100 µM (inactive).

**Q.** And the GI50 (UACC-257)?
**A.** Its GI50 is 14.9 µM (inactive).

**Q.** And the GI50 (ACHN)?
**A.** Its GI50 is 13.7 µM (inactive).

**Q.** What about the GI50 (OVCAR-3) of the same compound?
**A.** The GI50 was 13.8 µM (inactive).

**Q.** And the GI50 (T47D)?
**A.** The GI50 was 16.6 µM (inactive).

**Q.** And the GI50 (SK-MEL-5)?
**A.** The GI50 was 35.6 µM (inactive).

**Q.** What about the GI50 (U-251) of the same compound?
**A.** Its GI50 is 28.1 µM (inactive).

**Q.** And the GI50 (Malme-3M)?
**A.** Its GI50 is 13.6 µM (inactive).

**Q.** And the GI50 (SR)?
**A.** The GI50 was 18.5 µM (inactive).

**Q.** What about the GI50 (NCI-H460) of the same compound?
**A.** The GI50 was 94.6 µM (inactive).

**Q.** What about the GI50 (NCI-H226) of the same compound?
**A.** Its GI50 is 50.1 µM (inactive).

**Q.** What about the GI50 (TK-10) of the same compound?
**A.** Its GI50 is 30.8 µM (inactive).

**Q.** And the GI50 (HCT-116)?
**A.** Its GI50 is 15.4 µM (inactive).

**Q.** And the GI50 (M14)?
**A.** The GI50 was 20.8 µM (inactive).

**Q.** And the GI50 (RXF 393)?
**A.** Its GI50 is 19.2 µM (inactive).

**Q.** What about the GI50 (SF-539) of the same compound?
**A.** Its GI50 is 15.9 µM (inactive).

**Q.** What about the GI50 (MOLT-4) of the same compound?
**A.** The GI50 was 10.9 µM (inactive).

**Q.** And the GI50 (SK-MEL-28)?
**A.** The GI50 was 20.2 µM (inactive).

**Q.** And the GI50 (CAKI-1)?
**A.** The GI50 was 24.5 µM (inactive).

**Q.** What about the GI50 (SN12C) of the same compound?
**A.** Its GI50 is > 100 µM (inactive).

**Q.** What about the GI50 (K562) of the same compound?
**A.** Its GI50 is 19.6 µM (inactive).

**Q.** What about the GI50 (MCF7) of the same compound?
**A.** Its GI50 is 11.1 µM (inactive).

**Q.** What about the GI50 (MDA-MB-231) of the same compound?
**A.** Its GI50 is 13.7 µM (inactive).

**Q.** What about the GI50 (LOX IMVI) of the same compound?
**A.** Its GI50 is 14.7 µM (inactive).

**Q.** What about the GI50 (HOP-92) of the same compound?
**A.** The GI50 was 22.5 µM (inactive).

**Q.** What about the GI50 (NCI/ADR-RES) of the same compound?
**A.** The GI50 was 17.6 µM (inactive).

**Q.** What about the GI50 (SK-MEL-2) of the same compound?
**A.** Its GI50 is 21.7 µM (inactive).

**Q.** And the GI50 (SNB-19)?
**A.** The GI50 was > 100 µM (inactive).

**Q.** And the GI50 (BT-549)?
**A.** Its GI50 is 11 µM (inactive).

**Q.** What about the GI50 (MDA-N) of the same compound?
**A.** Its GI50 is 20 µM (inactive).

**Q.** What about the GI50 (SK-OV-3) of the same compound?
**A.** Its GI50 is > 100 µM (inactive).

**Q.** What about the GI50 (RPMI-8226) of the same compound?
**A.** The GI50 was 20.7 µM (inactive).

**Q.** And the GI50 (OVCAR-8)?
**A.** The GI50 was 23.1 µM (inactive).

**Q.** What about the GI50 (HOP-62) of the same compound?
**A.** The GI50 was > 100 µM (inactive).

**Q.** And the GI50 (NCI-H522)?
**A.** Its GI50 is 2.81 µM (inactive).

**Q.** And the GI50 (PC-3)?
**A.** The GI50 was 15.8 µM (inactive).

**Q.** What about the GI50 (DU-145) of the same compound?
**A.** The GI50 was 16.4 µM (inactive).

**Q.** And the GI50 (COLO 205)?
**A.** Its GI50 is 7.57 µM (inactive).

**Q.** And the GI50 (IGROV-1)?
**A.** The GI50 was 16.8 µM (inactive).

**Q.** What about the GI50 (SF-268) of the same compound?
**A.** Its GI50 is 28.2 µM (inactive).

**Q.** And the GI50 (786-0)?
**A.** Its GI50 is 21.2 µM (inactive).

**Q.** What about the GI50 (HL-60) of the same compound?
**A.** The GI50 was 0.288 µM (active).

**Q.** And the GI50 (EKVX)?
**A.** The GI50 was 50.7 µM (inactive).

**Q.** What about the GI50 (A549) of the same compound?
**A.** Its GI50 is > 100 µM (inactive).

**Q.** And the GI50 (SW-620)?
**A.** The GI50 was 11.5 µM (inactive).
